Assay results published in the supplement of paper PMC10627819.

How the values were obtained:
S. pneumoniae D39V [1] = experiment: fitness (endpoint OD595 vs no drug) (fraction); higher = more growth
Outline: (§1)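 Plates with 384 wells were inoculated at OD595 0.01 using 30 µl of TSB, LB Lennox or CY, or 55 µl for S. pneumoniae. Incubation was at 37 °C, with OD595 measured every 30 min for 14 h. Fitness is the stationary-phase transition optical density over the robust mean of no-drug control wells, after first-reading background subtraction; it is capped at 1.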

B. subtilis 168 [2] = experiment: as above
Outline: as §1

S. aureus DSM 20231 [3] = experiment: as above
Outline: as §1

S. pneumoniae D39V [4] = experiment: Bliss interaction score (quartile over a dose matrix) (fitness difference); higher = more antagonism (negative = synergy)
Outline: (§2)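 Combination data were used to infer fitness under each single drug. Fitness is the OD595 at entry into stationary phase divided by the robust mean of the plate's no-drug wells, with a cap of 1. The Bliss score is the observed minus the expected product fitness, summarised by quartiles over technical, biological and donor/recipient replicates.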

B. subtilis 168 [5] = experiment: as above
Outline: as §2

S. aureus DSM 20231 [6] = experiment: as above
Outline: as §2

S. aureus Newman [7] = experiment: as above
Outline: as §2

S. aureus Newman [8] = experiment: fitness (endpoint OD595 vs no drug) (fraction); higher = more growth; conditions: main component drawn
Outline: as §1
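For Bliss interaction score (quartile over a dose matrix) in this document: first quartile when negative (synergy) and third quartile when positive (antagonism).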

CO/N=C(\C(=O)N[C@@H]1C(=O)N2C(C(=O)O)=C(COC(C)=O)CS[C@H]12)c1csc(N)n1 [Cefotaxime] + CCC[C@@H]1C[C@@H](C(=O)N[C@@H]([C@H]2O[C@H](SC)[C@H](O)[C@@H](O)[C@H]2O)[C@@H](C)O)N(C)C1 [Lincomycin]
fitness
Conditions | partner 0.1 µg/mL | partner 0.2 µg/mL | partner 0.215 µg/mL | partner 0.4 µg/mL | partner 0.43 µg/mL | partner 0.8 µg/mL | partner 0.86 µg/mL
B. subtilis 168 [2], first compound 0.5 µg/mL | 0.257 | 0.241 | – | 0.201 | – | – | –
B. subtilis 168 [2], first compound 1 µg/mL | 0.144 | 0.126 | – | 0.0991 | – | – | –
B. subtilis 168 [2], first compound 2 µg/mL | 0.0702 | 0.0617 | – | 0.0675 | – | – | –
S. aureus DSM 20231 [3], first compound 0.039 µg/mL | 0.748 | 0.799 | – | – | – | – | –
S. aureus DSM 20231 [3], first compound 0.078 µg/mL | 0.721 | 0.728 | – | – | – | – | –
S. aureus DSM 20231 [3], first compound 0.156 µg/mL | 0.628 | 0.659 | – | 0.353 | – | – | –
S. aureus DSM 20231 [3], first compound 0.312 µg/mL | 0.582 | 0.569 | – | 0.188 | – | – | –
S. pneumoniae D39V [1], first compound 0.0018 µg/mL | – | 0.667 | 0.903 | 0.469 | 0.759 | 0.185 | 0.56
S. pneumoniae D39V [1], first compound 0.0035 µg/mL | – | 0.626 | 0.866 | 0.455 | 0.748 | 0.142 | 0.489
S. pneumoniae D39V [1], first compound 0.007 µg/mL | – | 0.566 | 0.868 | 0.388 | 0.791 | 0.0851 | 0.469

fitness, B. subtilis 168 [2], one replicate
Conditions | first compound 0.00775 µg/mL | first compound 0.0155 µg/mL | first compound 0.031 µg/mL | first compound 0.0625 µg/mL | first compound 0.125 µg/mL | first compound 0.25 µg/mL
partner 0.1 µg/mL | – | – | – | 0.506 | 0.44 | 0.334
partner 0.2 µg/mL | – | – | – | 0.548 | 0.452 | 0.371
partner 0.4 µg/mL | 0.767 | 0.667 | 0.452 | 0.475 | 0.444 | 0.319
partner 0.8 µg/mL | 0.744 | 0.619 | 0.415 | – | – | –
partner 1.6 µg/mL | 0.683 | 0.575 | 0.388 | – | – | –

Conditions | Bliss interaction score
B. subtilis 168 [5] | 0.0413
S. aureus DSM 20231 [6] | 0.0625
S. aureus Newman [7] | -0.173
S. pneumoniae D39V [4] | 0.105

COc1cccc2c1C(=O)c1c(O)c3c(c(O)c1C2=O)C[C@@](O)(C(=O)CO)C[C@@H]3O[C@H]1C[C@H](N)[C@H](O)[C@H](C)O1 [Doxorubicin] + CC(=O)NC[C@H]1CN(c2ccc(N3CCOCC3)c(F)c2)C(=O)O1 [Linezolid]
fitness
Conditions | first compound 0.25 µg/mL | first compound 0.5 µg/mL | first compound 0.625 µg/mL | first compound 1 µg/mL | first compound 1.25 µg/mL | first compound 2.5 µg/mL
B. subtilis 168 [2], partner 0.125 µg/mL | – | – | 0.556 | – | 0.489 | 0.311
B. subtilis 168 [2], partner 0.25 µg/mL | – | – | 0.0946 | – | 0.078 | 0.0654
B. subtilis 168 [2], partner 0.5 µg/mL | – | – | 0.0377 | – | 0.0497 | 0.0425
S. aureus DSM 20231 [3], partner 0.125 µg/mL | – | – | 0.762 | – | 0.814 | 0.716
S. aureus DSM 20231 [3], partner 0.25 µg/mL | – | – | 0.617 | – | 0.603 | 0.514
S. aureus DSM 20231 [3], partner 0.5 µg/mL | – | – | 0.223 | – | 0.204 | 0.16
S. pneumoniae D39V [1], partner 0.105 µg/mL | 0.755 | 0.756 | – | 0.746 | – | –
S. pneumoniae D39V [1], partner 0.2 µg/mL | 0.49 | 0.487 | – | 0.412 | – | –
S. pneumoniae D39V [1], partner 0.21 µg/mL | 0.633 | 0.66 | – | 0.674 | – | –
S. pneumoniae D39V [1], partner 0.4 µg/mL | 0.351 | 0.331 | – | 0.302 | – | –
S. pneumoniae D39V [1], partner 0.42 µg/mL | 0.472 | 0.432 | – | 0.377 | – | –
S. pneumoniae D39V [1], partner 0.8 µg/mL | 0.155 | 0.153 | – | 0.141 | – | –

fitness, one replicate
Conditions | first compound 0.625 µg/mL | first compound 1.25 µg/mL | first compound 2.5 µg/mL
B. subtilis 168 [2], partner 0.0625 µg/mL | 0.956 | 0.901 | 0.574
S. aureus DSM 20231 [3], partner 1 µg/mL | 0.0276 | 0.0358 | 0.0376

Conditions | Bliss interaction score
B. subtilis 168 [5] | -0.0705
S. aureus DSM 20231 [6] | -0.0425
S. aureus Newman [7] | 0.0954
S. pneumoniae D39V [4] | -0.113

COc1ccc(C[C@H](N)C(=O)N[C@H]2[C@@H](O)[C@H](n3cnc4c(N(C)C)ncnc43)O[C@@H]2CO)cc1 [Puromycin] + CCCCCCCCCC(=O)N[C@@H]1[C@H]([C@@H]([C@H](O[C@H]1OC2=C3C=C4C=C2OC5=C(C=C(C=C5)[C@H]([C@H]6C(=O)N[C@@H](C7=C(C(=CC(=C7)O)OC8[C@H]([C@H]([C@@H]([C@H](O8)CO)O)O)O)C9=C(C=CC(=C9)[C@H](C(=O)N6)NC(=O)[C@@H]4NC(=O)[C@@H]1C2=CC(=CC(=C2)OC2=C(C=CC(=C2)[C@H](C(=O)N[C@H](CC2=CC(=C(O3)C=C2)Cl)C(=O)N1)N)O)O)O)C(=O)O)O[C@H]1[C@@H]([C@H]([C@@H]([C@H](O1)CO)O)O)NC(=O)C)Cl)CO)O)O [Teicoplanin]
fitness
Conditions | first compound 0.39 µg/mL | first compound 0.78 µg/mL | first compound 1.56 µg/mL
S. aureus DSM 20231 [3], partner 0.1562 µg/mL, main component drawn | 0.895 | 0.997 | 0.982
S. aureus DSM 20231 [3], partner 0.3125 µg/mL, main component drawn | ≥ 1 | ≥ 1 | 1
S. aureus DSM 20231 [3], partner 0.625 µg/mL, main component drawn | ≥ 1 | ≥ 1 | ≥ 1
S. aureus Newman [8], partner 0.62 µg/mL, one replicate | 0.761 | 0.815 | 0.79
S. aureus Newman [8], partner 1.24 µg/mL, one replicate | 0.754 | 0.755 | 0.76
S. aureus Newman [8], partner 2.48 µg/mL, one replicate | 0.457 | 0.454 | 0.403

fitness, S. aureus DSM 20231 [3], one replicate, main component drawn
Conditions | partner 0.1562 µg/mL | partner 0.3125 µg/mL | partner 0.625 µg/mL
first compound 3.12 µg/mL | 0.94 | ≥ 1 | ≥ 1
first compound 6.24 µg/mL | 0.664 | 0.579 | 0.504

fitness, S. aureus Newman [8]
Conditions | first compound 0.39 µg/mL | first compound 0.78 µg/mL | first compound 1.56 µg/mL
partner 0.1562 µg/mL | ≥ 1 | ≥ 1 | ≥ 1
partner 0.3125 µg/mL | ≥ 1 | ≥ 1 | ≥ 1
partner 0.625 µg/mL | ≥ 1 | 0.888 | 0.906

main component drawn
Conditions | Bliss interaction score
B. subtilis 168 [5] | 0.0835
S. aureus DSM 20231 [6] | -0.0344
S. aureus Newman [7] | 0.0617
S. pneumoniae D39V [4] | 0.083
